Structures are written as SMILES.

This assay concerns panel of 290 distinct kinases (321 in the larger panel), excluding mutant variants. Conditions: no asterisk: panel of 290 distinct kinases.

Protocol: Competition binding assays used herein were developed, validated and performed as described in Fabian et al., Nature Biotechnology 2005, 23, 329-336. […] The liganded beads were blocked with excess biotin and washed with blocking buffer (SeaBlock (Pierce), 1% BSA, 0.05% Tween 20, 1 mM DTT) to remove unbound ligand and to reduce non-specific binding. […] Test compounds were prepared as 100× stocks in DMSO and rapidly diluted into the aqueous environment. DMSO was added to control assays lacking a test compound. Primary screen interactions were performed in polypropylene 384-well plates in a final volume of 34 μL, while Kd determinations were performed in polystyrene 96-well plates in a final volume of 135 pt. […] The kinase concentration in the eluates was measured by quantitative PCR. Each kinase was tested individually against each compound. Kds were determined using eleven serial threefold dilutions. A selectivity score, which is a quantitative measure of selectivity of a compound against a panel of enzymes, may be calculated for a compound by dividing the number of enzymes for which a compound meets a set criteria, (for example, a binding constant of 100 nM or less), by the total number of enzymes tested. […] (Note, for those compounds tested in a larger kinase panel, as indicated by an asterisk (*) next to the S35 score, the divisor is 321 (i.e. the larger panel contains 321 distinct kinases, excluding mutant variants.)).

Take `COc1cc2ncnc(Sc3cccc(NC(=O)Nc4cc(C(C)(C)C)nn4-c4ccc(C#N)cc4)c3)c2cc1OC` [Ex 329, 1-(3-tert-butyl-1-(4-cyanophenyl)-1H-pyrazol-5-yl)-3-(3-(6,7-dimethoxyquinazolin-4-ylthio)phenyl)urea]: the S35 result was “D (D > 0.40)”. The entry for `COc1cc2ncnc(Oc3cccc(NC(=O)Nc4cc(C(C)(C)C)nn4C4CCCCC4)c3)c2cc1OC` [Ex 330, 1-(3-tert-butyl-1-cyclohexyl-1H-pyrazol-5-yl)-3-(3-(6,7-dimethoxyquinazolin-4-yloxy)phenyl)urea] is “C (0.20 < C ≦ 0.40)”. In the case of `COc1cc2ncnc(Sc3cccc(NC(=O)Nc4cc(C(C)(C)C)nn4C4CCCCC4)c3)c2cc1OC` [Ex 331, 1-(3-tert-butyl-1-cyclohexyl-1H-pyrazol-5-yl)-3-(3-(6,7-dimethoxyquinazolin-4-ylthio)phenyl)urea] it was “B (0.10 < B ≦ 0.20)”; in that of `COc1cc2ncnc(Oc3cccc(NC(=O)Nc4cc(C(C)(C)C)nn4CC(C)C)c3)c2cc1OC` [Ex 332, 1-(3-tert-butyl-1-isobutyl-1H-pyrazol-5-yl)-3-(3-(6,7-dimethoxyquinazolin-4-yloxy)phenyl)urea], “C (0.20 < C ≦ 0.40)”.

As for `COc1cc2ncnc(Sc3cccc(NC(=O)Nc4cc(C(C)(C)C)nn4CC(C)C)c3)c2cc1OC` [Ex 333, 1-(3-tert-butyl-1-isobutyl-1H-pyrazol-5-yl)-3-(3-(6,7-dimethoxyquinazolin-4-ylthio)phenyl)urea], the S35 entry is “C (0.20 < C ≦ 0.40)”. In the case of `COc1cc2ncnc(Oc3cccc(NC(=O)Nc4cc(C(C)(C)C)nn4C(C)C)c3)c2cc1OC` [Ex 334, 1-(3-tert-butyl-1-isopropyl-1H-pyrazol-5-yl)-3-(3-(6,7-dimethoxyquinazolin-4-yloxy)phenyl)urea] it was “C (0.20 < C ≦ 0.40)”; in that of `COc1cc2ncnc(Sc3cccc(NC(=O)Nc4cc(C(C)(C)C)nn4C(C)C)c3)c2cc1OC` [Ex 335, 1-(3-tert-butyl-1-isopropyl-1H-pyrazol-5-yl)-3-(3-(6,7-dimethoxyquinazolin-4-ylthio)phenyl)urea], “C (0.20 < C ≦ 0.40)”; in that of `COc1cc2ncnc(Oc3cccc(NC(=O)Nc4cc(C(C)(C)C)nn4-c4ccncc4)c3)c2cc1OC` [Ex 336, 1-(3-tert-butyl-1-(pyridin-4-yl)-1H-pyrazol-5-yl)-3-(3-(6,7-dimethoxyquinazolin-4-yloxy)phenyl)urea], “D (D > 0.40)”. For `COc1cc2ncnc(Sc3cccc(NC(=O)Nc4cc(C(C)(C)C)nn4-c4ccncc4)c3)c2cc1OC` [Ex 337, 1-(3-tert-butyl-1-(pyridin-4-yl)-1H-pyrazol-5-yl)-3-(3-(6,7-dimethoxyquinazolin-4-ylthio)phenyl)urea], the S35 result was “D (D > 0.40)”. As to `COc1cc2ncnc(Oc3cccc(NC(=O)Nc4cc(C(F)(F)F)nn4-c4cccc(C)c4)c3)c2cc1OC` [Ex 338, 1-(3-(6,7-dimethoxyquinazolin-4-yloxy)phenyl)-3-(1-m-tolyl-3-(trifluoromethyl)-1H-pyrazol-5-yl)urea], the S35 result is listed as “C (0.20 < C ≦ 0.40)”. The entry for `COc1cc2ncnc(Sc3cccc(NC(=O)Nc4cc(C(F)(F)F)nn4-c4cccc(C)c4)c3)c2cc1OC` [Ex 339, 1-(3-(6,7-dimethoxyquinazolin-4-ylthio)phenyl)-3-(1-m-tolyl-3-(trifluoromethyl)-1H-pyrazol-5-yl)urea] is “C (0.20 < C ≦ 0.40)”; for `COc1cc2ncnc(Oc3cccc(NC(=O)Nc4cc(C(C)(C)C)nn4-c4ccccc4Cl)c3)c2cc1OC` [Ex 340, 1-(3-tert-butyl-1-(2-chlorophenyl)-1H-pyrazol-5-yl)-3-(3-(6,7-dimethoxyquinazolin-4-yloxy)phenyl)urea] it is “D (D > 0.40)”. As to `COc1cc2ncnc(Sc3cccc(NC(=O)Nc4cc(C(C)(C)C)nn4-c4ccccc4Cl)c3)c2cc1OC` [Ex 341, 1-(3-tert-butyl-1-(2-chlorophenyl)-1H-pyrazol-5-yl)-3-(3-(6,7-dimethoxyquinazolin-4-ylthio)phenyl)urea], the S35 entry is recorded as “C (0.20 < C ≦ 0.40)”. The entry for `COc1cc2ncnc(Oc3cccc(NC(=O)Nc4cc(C(C)(C)C)nn4-c4ccccc4C)c3)c2cc1OC` [Ex 342, 1-(3-tert-butyl-1-o-tolyl-1H-pyrazol-5-yl)-3-(3-(6,7-dimethoxyquinazolin-4-yloxy)phenyl)urea] is “D (D > 0.40)”; for `COc1cc2ncnc(Sc3cccc(NC(=O)Nc4cc(C(C)(C)C)nn4-c4ccccc4C)c3)c2cc1OC` [Ex 343, 1-(3-tert-butyl-1-o-tolyl-1H-pyrazol-5-yl)-3-(3-(6,7-dimethoxyquinazolin-4-ylthio)phenyl)urea] it is “C (0.20 < C ≦ 0.40)”. Take `COc1cc2ncnc(Oc3cccc(NC(=O)Nc4cc(C(C)(C)C)nn4-c4ccccn4)c3)c2cc1OC` [Ex 344, 1-(3-tert-Butyl-1-(pyridin-2-yl)-1H-pyrazol-5-yl)-3-(3-(6,7-dimethoxyquinazolin-4-yloxy)phenyl)urea]: the S35 result was “C (0.20 < C ≦ 0.40)”. As for `COc1cc2ncnc(Sc3cccc(NC(=O)Nc4cc(C(C)(C)C)nn4-c4ccccn4)c3)c2cc1OC` [Ex 345, 1-(3-tert-butyl-1-(pyridin-2-yl)-1H-pyrazol-5-yl)-3-(3-(6,7-dimethoxyquinazolin-4-ylthio)phenyl)urea], the S35 result is listed as “B (0.10 < B ≦ 0.20)”.

For the compound `COc1cc2ncnc(Oc3cccc(NC(=O)Nc4cc(C5(C(F)(F)F)CC5)nn4-c4ccc(C)cc4)c3)c2cc1OC` [Ex 346, 1-(3-(6,7-dimethoxyquinazolin-4-yloxy)phenyl)-3-(1-p-tolyl-3-(1-(trifluoromethyl)cyclopropyl)-1H-pyrazol-5-yl)urea], the S35 result is “D (D > 0.40)”. In the case of `COc1cc2ncnc(Sc3cccc(NC(=O)Nc4cc(C5(C(F)(F)F)CC5)nn4-c4ccc(C)cc4)c3)c2cc1OC` [Ex 347, 1-(3-(6,7-dimethoxyquinazolin-4-ylthio)phenyl)-3-(1-p-tolyl-3-(1-(trifluoromethyl)cyclopropyl)-1H-pyrazol-5-yl)urea] it was “D (D > 0.40)”; in that of `COc1ccc(-n2nc(C(C)C)cc2NC(=O)Nc2cccc(Oc3ncnc4cc(OC)c(OC)cc34)c2)cc1` [Ex 348, 1-(3-(6,7-dimethoxyquinazolin-4-yloxy)phenyl)-3-(3-isopropyl-1-(4-methoxyphenyl)-1H-pyrazol-5-yl)urea], “D (D > 0.40)”. The entry for `COc1ccc(-n2nc(C(C)C)cc2NC(=O)Nc2cccc(Sc3ncnc4cc(OC)c(OC)cc34)c2)cc1` [Ex 349, 1-(3-(6,7-dimethoxyquinazolin-4-ylthio)phenyl)-3-(3-isopropyl-1-(4-methoxyphenyl)-1H-pyrazol-5-yl)urea] is “C (0.20 < C ≦ 0.40)”. In the case of `COc1cc2ncnc(Oc3cccc(NC(=O)Nc4cc(C(C)C)nn4-c4cccnc4)c3)c2cc1OC` [Ex 350, 1-(3-(6,7-dimethoxyquinazolin-4-yloxy)phenyl)-3-(3-isopropyl-1-(pyridin-3-yl)-1H-pyrazol-5-yl)urea] it was “D (D > 0.40)”; in that of `COc1cc2ncnc(Sc3cccc(NC(=O)Nc4cc(C(C)C)nn4-c4cccnc4)c3)c2cc1OC` [Ex 351, 1-(3-(6,7-dimethoxyquinazolin-4-ylthio)phenyl)-3-(3-isopropyl-1-(pyridin-3-yl)-1H-pyrazol-5-yl)urea], “C (0.20 < C ≦ 0.40)”.

Values taken from US9320739B2 (AMBIT BIOSCIENCES CORPORATION, priority 2008, dated 2016).
